A word on the pKi: it is the Ki on a negative log10 scale, so that one unit is a factor of ten.

Molecules are shown by their SMILES. pKi: −log10 of the molar value.

Test [1] concerns the target T1, human adenosine A2A receptor (Homo sapiens, UniProt P29274).
T1 construct: expressed in transfected cells; host or cells: CHO cells, Semliki Forest virus expression system; membrane preparation
Put plainly: Human adenosine A2A receptor [3H]-SCH-58261 binding assay. As to conditions: for selectivity (A1/A2a): ratio KiHA1 divided by KiHA2A; for pKi: recombinant human A2A in CHO cell membranes, [3H]-SCH-58261, Cheng-Prussoff, read-out: Ki hA2A.

The next test concerns the target T2, HA1 adenosine receptor (Homo sapiens, UniProt P30542).
T2 sequence (P30542 1-326): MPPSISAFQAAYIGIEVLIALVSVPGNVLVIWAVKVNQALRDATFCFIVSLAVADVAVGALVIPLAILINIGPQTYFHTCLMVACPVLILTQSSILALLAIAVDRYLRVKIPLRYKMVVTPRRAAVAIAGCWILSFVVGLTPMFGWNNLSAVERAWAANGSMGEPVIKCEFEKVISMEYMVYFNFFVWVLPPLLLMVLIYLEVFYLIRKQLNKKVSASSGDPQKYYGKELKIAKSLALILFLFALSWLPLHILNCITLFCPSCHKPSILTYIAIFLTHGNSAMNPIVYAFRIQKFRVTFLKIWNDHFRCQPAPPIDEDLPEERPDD
Put plainly: Human adenosine A1 receptor affinity (Ki hA1). The class given is binding.

T1 sequence (P29274 whole entry): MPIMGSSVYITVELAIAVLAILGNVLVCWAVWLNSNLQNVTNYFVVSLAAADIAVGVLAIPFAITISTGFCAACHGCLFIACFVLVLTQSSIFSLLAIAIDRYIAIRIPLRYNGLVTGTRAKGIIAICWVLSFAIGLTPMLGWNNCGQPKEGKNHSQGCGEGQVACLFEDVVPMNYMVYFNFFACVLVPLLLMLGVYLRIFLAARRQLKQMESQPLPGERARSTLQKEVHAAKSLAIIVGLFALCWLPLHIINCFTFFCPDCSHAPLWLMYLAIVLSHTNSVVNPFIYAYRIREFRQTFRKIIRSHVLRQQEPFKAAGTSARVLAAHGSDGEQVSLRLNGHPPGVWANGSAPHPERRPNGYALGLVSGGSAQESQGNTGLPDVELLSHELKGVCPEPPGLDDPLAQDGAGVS

For `CC1CCCN(C(=O)c2cc(N)n3nc(-c4ccccn4)nc3c2)C1` (stereo not drawn) [Example 419, (5-Amino-2-pyridin-2-yl-[1,2,4]triazolo[1,5-a]pyridin-7-yl)-(3-methyl-piperidin-1-yl)-methanone], in test [1], the “selectivity (A1/A2a)” value is 35.5 and the pKi is 7.35. For the same compound, the pKi at HA1 adenosine receptor was 5.80.

For `CCCN(CCC)C(=O)c1cc(N)n2nc(-c3ccccn3)nc2c1` [Example 420, 5-Amino-2-pyridin-2-yl-[1,2,4]triazolo[1,5-a]pyridine-7-carboxylic acid dipropylamide], in test [1], the “selectivity (A1/A2a)” value is listed as 17.5 and the pKi was 6.99. Moreover, at HA1 adenosine receptor, the pKi was 5.74.

As to `CCCCN(CC)C(=O)c1cc(N)n2nc(-c3ccccn3)nc2c1` [Example 421, 5-Amino-2-pyridin-2-yl-[1,2,4]triazolo[1,5-a]pyridine-7-carboxylic acid butyl-ethyl-amide], in test [1], the “selectivity (A1/A2a)” value is recorded as 15.9 and the pKi was 7.07. This compound gave a pKi at HA1 adenosine receptor of 5.87.

In the case of `Nc1cc(C(=O)N2CCCCCCC2)cc2nc(-c3ccccn3)nn12` [Example 422, (5-Amino-2-pyridin-2-yl-[1,2,4]triazolo[1,5-a]pyridin-7-yl)-azocan-1-yl-methanone], in test [1], the “selectivity (A1/A2a)” value turned out to be 21.4 and the pKi was 7.76. The pKi at HA1 adenosine receptor is 6.43.

Consider `CC1CC(C)CN(C(=O)c2cc(N)n3nc(-c4ccccn4)nc3c2)C1` (stereo not drawn) [Example 423, (5-Amino-2-pyridin-2-yl-[1,2,4]triazolo[1,5-a]pyridin-7-yl)-(3,5-dimethyl-piperidin-1-yl)-methanone], for which, in test [1], the “selectivity (A1/A2a)” value worked out at 24.6 and the pKi is 7.47. The compound also gave a pKi on HA1 adenosine receptor of 6.08.

Regarding `CCCN(CC1CC1)C(=O)c1cc(N)n2nc(-c3ccccn3)nc2c1` [Example 424, 5-Amino-2-pyridin-2-yl-[1,2,4]triazolo[1,5-a]pyridine-7-carboxylic acid cyclopropylmethyl-propyl-amide], the “selectivity (A1/A2a)” value in test [1] is 17.7. For the same compound, the pKi is 7.30 in test [1] and 6.06 on HA1 adenosine receptor.

`COC[C@H]1CCCN1C(=O)c1cc(N)n2nc(-c3ccccn3)nc2c1` [Example 425, (5-Amino-2-pyridin-2-yl-[1,2,4]triazolo[1,5-a]pyridin-7-yl)-(R-2-methoxymethyl-pyrrolidin-1-yl)-methanone]: in test [1], the “selectivity (A1/A2a)” value came to 31.7 and the pKi is 7.39. The compound also had a pKi at HA1 adenosine receptor of 5.89.

Turning to `COC[C@@H]1CCCN1C(=O)c1cc(N)n2nc(-c3ccccn3)nc2c1` [Example 426, (5-Amino-2-pyridin-2-yl-[1,2,4]triazolo[1,5-a]pyridin-7-yl)-(S-2-methoxymethyl-pyrrolidin-1-yl)-methanone], in test [1], the “selectivity (A1/A2a)” value is given as 17.2. The values for the pKi (in test [1]; on HA1 adenosine receptor) were 6.92 and 5.69, respectively.

Take `CCCCN(CCC)C(=O)c1cc(N)n2nc(-c3ccccn3)nc2c1` [Example 427, 5-Amino-2-pyridin-2-yl-[1,2,4]triazolo[1,5-a]pyridine-7-carboxylic acid butyl-propyl-amide]: in test [1], the “selectivity (A1/A2a)” value came out at 11.7 and the pKi is 6.99. Besides, the pKi on HA1 adenosine receptor is 5.92.

On to `C=CCN(C(=O)c1cc(N)n2nc(-c3ccccn3)nc2c1)C1CCCC1` [Example 429, 5-Amino-2-pyridin-2-yl-[1,2,4]triazolo[1,5-a]pyridine-7-carboxylic acid allyl-cyclopentyl-amide], for which, in test [1], the “selectivity (A1/A2a)” value is given as 15.3 and the pKi was 7.51. Also, the pKi at HA1 adenosine receptor is 6.32.

With `CCC1CCC(C)N(C(=O)c2cc(N)n3nc(-c4ccccn4)nc3c2)C1` (stereo not drawn) [Example 430, (5-Amino-2-pyridin-2-yl-[1,2,4]triazolo[1,5-a]pyridin-7-yl)-(5-ethyl-2-methyl-piperidin-1-yl)-methanone], in test [1], the “selectivity (A1/A2a)” value amounted to 10.8 and the pKi is 7.20. This compound also had a pKi at HA1 adenosine receptor of 6.16.

Consider `CCN(Cc1ccncc1)C(=O)c1cc(N)n2nc(-c3ccccn3)nc2c1` [Example 431, 5-Amino-2-pyridin-2-yl-[1,2,4]triazolo[1,5-a]pyridine-7-carboxylic acid ethyl-pyridin-4-ylmethyl-amide], for which the “selectivity (A1/A2a)” value in test [1] was found to be 31.2. Moreover, the pKi was 7.48 in test [1] and 5.99 on HA1 adenosine receptor.

In the case of `CN(C)C(=O)C1CCCN1C(=O)c1cc(N)n2nc(-c3ccccn3)nc2c1` (stereo not drawn) [Example 432, 1-(5-Amino-2-pyridin-2-yl-[1,2,4]triazolo[1,5-a]pyridine-7-carbonyl)-pyrrolidine-2-carboxylic acid dimethyl amide], the “selectivity (A1/A2a)” value in test [1] worked out at 27.2. In addition, the pKi in test [1] is 7.06; at HA1 adenosine receptor, 5.62.

Consider `CC(C)N(Cc1ccccc1)C(=O)c1cc(N)n2nc(-c3ccccn3)nc2c1` [Example 433, 5-Amino-2-pyridin-2-yl-[1,2,4]triazolo[1,5-a]pyridine-7-carboxylic acid benzyl-isopropyl-amide], for which the “selectivity (A1/A2a)” value in test [1] was 11.8. Further, the pKi was 7.81 in test [1] and 6.73 on HA1 adenosine receptor.

As for `Nc1cc(C(=O)N(Cc2ccccc2)Cc2ccccc2)cc2nc(-c3ccccn3)nn12` [Example 435, 5-Amino-2-pyridin-2-yl-[1,2,4]triazolo[1,5-a]pyridine-7-carboxylic acid dibenzylamide], in test [1], the “selectivity (A1/A2a)” value worked out at 19 and the pKi was 8.19. The pKi on HA1 adenosine receptor is 6.92.

On to `CCN(CCOC)C(=O)c1cc(N)n2nc(-c3nccs3)nc2c1` [Example 498, 5-Amino-2-thiazol-2-yl-[1,2,4]triazolo[1,5-a]pyridine-7-carboxylic acid ethyl-(2-methoxy-ethyl)-amide], for which, in test [1], the “selectivity (A1/A2a)” value amounted to 21. The pKi is 6.72 in test [1] and 5.40 on HA1 adenosine receptor.

The values are drawn from patent publication US6506772B1, “Substituted [1,2,4]triazolo[1,5a]pyridine derivatives with activity as adenosine receptor ligands” (Hoffmann-La Roche Inc., priority 2000, dated 2003).
